Read-outs that look alike come from different tables or passages of the source.
System: AsPC-1 (K-Ras G12D)
Test: Potency assay: pERK
Format: cell-based, human
Conditions: Homo sapiens
Method: The purpose of this assay is to measure the ability of test compounds to inhibit K-Ras in cells. […] This procedure measures a decrease in cellular pERK in response to test compounds. The procedure described below in NCI-H358 cells is applicable to K-Ras G12C.
NCI-H358 cells were grown and maintained using media and procedures recommended by the ATCC. On the day prior to compound addition, cells were plated in 384-well cell culture plates (40 μl/well) and grown overnight in a 37° C., 5% CO2 incubator. Test compounds were prepared in 10, 3-fold dilutions in DMSO, with a high concentration of 10 mM. On the day of assay, 40 nL of test compound was added to each well of cell culture plate using an Echo550 liquid handler (LabCyte®). Concentrations of test compound were tested in duplicate. After compound addition, cells were incubated 4 hours at 37° C., 5% CO2. Following incubation, culture medium was removed and cells were washed once with phosphate buffered saline.
In some experiments, cellular pERK level was determined using the AlphaLISA SureFire Ultra p-ERK1/2 Assay Kit (PerkinElmer). Cells were lysed in 25 μL lysis buffer, with shaking at 600 RPM at room temperature. Lysate (10 μL) was transferred to a 384-well Opti-plate (PerkinElmer) and 5 μL acceptor mix was added. After a 2-hour incubation in the dark, 5 μL donor mix was added, plate was sealed, and incubated 2 hours at room temperature. Signal was read on an Envision plate reader (PerkinElmer) using standard AlphaLISA settings. Analysis of raw data was carried out in Excel (Microsoft) and Prism (GraphPad). Signal was plotted vs. the decadal logarithm of compound concentration, and IC50 was determined by fitting a 4-parameter sigmoidal concentration response model.
In other experiments, cellular pERK was determined by In-Cell Western. Following compound treatment, cells were washed twice with 200 μL tris buffered saline (TBS) and fixed for 15 minutes with 150 μL 4% paraformaldehyde in TBS. Fixed cells were washed 4 times for 5 minutes with TBS containing 0.1% Triton X-100 (TBST) and then blocked with 100 μL Odyssey blocking buffer (LI-COR) for 60 minutes at room temperature. Primary antibody (PERK, CST-4370, Cell Signaling Technology) was diluted 1:200 in blocking buffer, and 50 μL was added to each well and incubated overnight at 4° C. Cells were washed 4 times for 5 minutes with TBST. Secondary antibody (IR-800CW rabbit, LI-COR, diluted 1:800) and DNA stain DRAQ5 (LI-COR, diluted 1:2000) were added and incubated 1-2 hours at room temperature. Cells were washed 4 times for 5 minutes with TBST. Plates were scanned on a Li—COR Odyssey CLx Imager. Analysis of raw data was carried out in Excel (Microsoft) and Prism (GraphPad). Signal was plotted vs. the decadal logarithm of compound concentration, and IC50 was determined by fitting a 4-parameter sigmoidal concentration response model.

[1] = ASPC1, AsPC-1 KRAS G12D, read-out: pERK EC50

`CCn1c(-c2cccnc2[C@H](C)OC)c2c3cc(ccc31)-c1cc(O)cc(c1)C[C@H](NC(=O)[C@H](C(C)C)N(C)C(=O)c1ccc([C@@H]3CN3)cc1)C(=O)N1CCC[C@H](N1)C(=O)OCC(C)(C)C2` [Example 131] was tested, and the EC50 [1] was under 5 µM.
Molecule `CCn1c(-c2cccnc2[C@H](C)OC)c2c3cc(ccc31)-c1cc(O)cc(c1)C[C@H](NC(=O)[C@H](C(C)C)N(C)C(=O)N1CCN(C(=O)[C@H]3CN3)CC1)C(=O)N1CCC[C@H](N1)C(=O)OCC(C)(C)C2` [Example 177, 4-((R)-aziridine-2-carbonyl)-N-((2S)-1-(((6^3S,4S)-1^1-ethyl-2^5-hydroxy-1^2-(2-((S)-1-methoxyethyl)pyridin-3-yl)-10,10-dimethyl-5,7-dioxo-6^1,6^2,6^3,6^4,6^5,6^6-hexahydro-1^1H-8-oxa-1 (5,3)-indola-6 (1,3)-pyridazina-2 (1,3)-benzenacycloundecaphane-4-yl)amino)-3-methyl-1-oxobutan-2-yl)-N-methylpiperazine-1-carboxamide] has an EC50 [1] of under 5 µM.
`CCn1c(-c2cccnc2[C@H](C)OC)c2c3cc(ccc31)-c1cc(O)cc(c1)C[C@H](NC(=O)[C@H](C1CCCC1)N1CC[C@@]3(CCN(C(=O)[C@@H]4N[C@@H]4C4CC4)C3)C1=O)C(=O)N1CCC[C@H](N1)C(=O)OCC(C)(C)C2` [Example 215] gave an EC50 [1] of under 5 µM.
With `CCn1c(-c2cccnc2[C@H](C)OC)c2c3cc(ccc31)-c1csc(n1)C[C@H](NC(=O)[C@H](C1CCCC1)N1CC[C@]3(CCN(C(=O)[C@@H]4N[C@@H]4C4CC4)C3)C1=O)C(=O)N1CCC[C@H](N1)C(=O)OCC(C)(C)C2` [Example 234] the EC50 [1] was under 5 µM.
Molecule `CCn1c(-c2cccnc2[C@H](C)OC)c2c3cc(ccc31)-c1cc(O)cc(c1)C[C@H](NC(=O)[C@H](C(C)C)N(C)C(=O)CN(C)C(=O)[C@@H]1CN1CCCN1CCCC1=O)C(=O)N1CCC[C@H](N1)C(=O)OCC(C)(C)C2` (stereo partly drawn) [Example 269] has an EC50 (ASPC1, read-out: pERK EC50) of under 5 µM.
In the case of `CCn1c(-c2cccnc2[C@H](C)OC)c2c3cc(ccc31)-c1cc(cc(C(F)F)c1)C[C@H](NC(=O)[C@H](C1CCCC1)N1CC[C@]3(CCN(C(=O)[C@@H]4N[C@@H]4C4CC4)C3)C1=O)C(=O)N1CCC[C@H](N1)C(=O)OCC(C)(C)C2` [Example 318], the EC50 [1] is reported as under 5 µM.
